From patent US20100093670A1, “Compounds for the treatment of angiogenesis” (priority 2006, published 2010)
Entries after “also recorded” stand apart in the source; their conditions may differ.

How the values were obtained:
Assay type in all cases: cell-based, human
HUVEC cells [1] = test: HUVEC migration, wound healing assay with time-lapse imaging; settings: for inhibition of HUVEC migration to the blank area: 24, 48 and 72 hr after treatment, compared to DMSO
Source text: Using the above described time-lapse culture system, a wound healing assay was used to analyze the effect of Compound 249 and CA4 on HUVEC cells migration. Confluent HUVEC cultures were scraped similarly to make a blank area. Migration of remaining cells under different treatment was imaged at the same time to generate time-lapse image sequences. Time-lapse movies were further analyzed to calculate the number of cells that migrated to the blank area. In FIG. 4, the gray lines show the front line of cells after scraping and the red lines show the front lines of cells after migration at 24, 48 and 72 hr after treatment.

HUVEC cells [2] = test: HUVEC cell morphology (shrinkage), time lapse imaging
Protocol: HUVEC cells (ATCC, VA) (passage number 4) were cultured in EGM2 medium (Cambrex, Mass.) on 24-well plates and time lapse imaging was performed in a cell culture system mounted on an inverted microscope supplied with 5% CO2. The temperature was kept at 35° C. Images were taken every 60 sec using 20× objective (FIGS. 1-3) or every 30 min using 2× objective (FIG. 4) for up to 90 hr. FIGS. 1-3 show results from three time points of treatment: 0, 50, 100 min. […] Most shrunken cells were at cell cycle interphase but not mitotic stage, and still moving on the culture surface, as observed in time-lapse movies (data not shown). The shrinking effect caused by Compound 249 (and CA4) is not identical to the apoptotic effect in mitotic cells after microtubule depolymerization.

[3] = tested on: VE-cadherin junctions of HUVEC cells; test: VE-cadherin junctions of HUVEC cells, immunostaining; settings: 24 hrs
Protocol: It was thought that these phenotypic changes might be associated with alterations of endothelial cell junctions. To determine if Compound 249 induced disengagement of HUVEC cell junctions, VE-cadherin junctions of HUVEC cells were examined. HUVEC cells were treated with DMSO or Compound 249 (0.1, 1, or 10 nM) for 24 hrs and fixed for immunostaining. DMSO concentration was 1:100 for all treatment. To boost the immunofluorescence signal, cells were stained with a mixture of two polyclonal anti-human VE-cadherin Abs (1:1 mixed, obtained from Amersham Biosciences, N.J., and Santa Cruz Biotechnology, Calif.) followed by staining with a mixture of fluorescent secondary antibodies. […] Non-DMSO treated cells gave a similar result to those with DMSO treatment (data not shown). With 1 nM Compound 249 treatment, VE-cadherin staining was reduced (red arrow in Compound 249 1 nM) compared to that in DMSO or Compound 249 0.1 nM treatment. […] In addition, the potent effect of Compound 249 on microtubule cytoskeletons can also contribute strongly to the cell-cell junction disruption.

[4] = 1 nM, compared to DMSO treatment

SMILES	absolute migrated cell numbers (quantitative analysis, FIG. 5) (HUVEC cells [1]; 1 nM)	inhibition of HUVEC migration to the blank area (HUVEC cells [1]; 1 nM)	absolute migrated cell numbers (quantitative analysis, FIG. 5) (HUVEC cells [1]; 5 nM)	inhibition of HUVEC migration to the blank area (HUVEC cells [1]; 5 nM)	HUVEC cell shrinkage / morphological change (HUVEC cells [2]; [4])	HUVEC cell shrinkage / morphological change (HUVEC cells [2]; 10 nM)	disengagement of VE-cadherin junctions ([3]; 1 nM)	VE-cadherin staining at cell-cell junctions ([3]; 1 nM, compared to DMSO or 0.1 nM)	VE-cadherin staining at cell-cell junctions ([3]; 10 nM)	disengagement of cell junctions ([3]; 10 nM)	inhibitory effect on HUVEC migration in vitro (overall) (HUVEC cells [1])	time after treatment at which the difference in migration inhibition between Compound 249 and CA4 was noticeable (FIG. 6) (HUVEC cells [1]; 1 nM) [h]	inhibition of HUVEC migration compared with CA4 (HUVEC cells [1]; comparison Compound 249 vs CA4)	time of treatment within which HUVEC cell shrinkage was caused (HUVEC cells [2]; 1 nM) [min]	time of treatment within which HUVEC cell shrinkage was induced (HUVEC cells [2]; 1 nM) [h]	effect on HUVEC cell morphology (shrinkage) compared with CA4 (HUVEC cells [2]; comparison Compound 249 vs CA4)
COc1ccc(/C=C\c2cc(OC)c(OC)c(OC)c2)cc1O [CA4, Combretastatin A4, reference compound]	much less of an effect on HUVEC migration	did not block the migration event	similar	significantly blocked migration	did not cause obvious morphological changes	caused a similar change on HUVEC cells	–	–	–	–	–	–	–	–	–	–
COc1ccc(-c2cnoc2-c2cc(OC)c(OC)c(OC)c2)cc1N [Compound 249, 2-methoxy-5-(5-(3,4,5-trimethoxyphenyl)isoxazol-4-yl)aniline]	similar	migration inhibition; also recorded: Inhibits HUVEC Migration; also recorded: significantly blocked migration; also recorded: inhibited HUVEC cell migration	similar	significantly blocked migration	Induces HUVEC Cell Shrinkage; also recorded: caused HUVEC cell shrinkage; also recorded: induced shrinkage of HUVEC cells	–	some of the VE-cadherin junctions were disengaged	reduced	significantly abolished VE-cadherin staining	most of the cell junctions were disengaged	potent inhibitory effect	≤ 4	stronger effect on both shrinkage and migration than CA4	≤ 50	≤ 1	stronger effect on both shrinkage and migration than CA4; also recorded: more potent effect on HUVEC cell morphology than CA4
